The assay deals with RAW 264.7 cells. Briefly: Quantitative cell-permeability of FITC-labeled aMTD- or rPeptide-fused CRA recombinant proteins (flow cytometry). It is filed as cell-based. The essentials:
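RAW 264.7 cells were exposed to 10 μM FITC-labeled recombinant proteins, consisting of a non-functional cargo fused to aMTD or rPeptide sequences, for 1 hour at 37° C. Cells were washed three times in cold PBS and treated with 0.25% tripsin/EDTA for 20 minutes at 37° C. to strip surface-bound protein, then uptake was measured by flow cytometry.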

The mark [1] stands for this setting: cell-permeability of aMTD-fused CRA recombinant protein relative to negative control (A: rP38).
[2] abbreviates: cell-permeability of aMTD-fused CRA recombinant protein relative to reference CPP (B: MTM12).
Setting [3] is: cell-permeability of aMTD-fused CRA recombinant protein relative to reference CPP (C: MTD85).
[4] abbreviates: cell-permeability relative to negative control rP38 (A type), aMTD-fused CRA recombinant protein, 10 μM FITC-labeled, 1 hour, 37° C., RAW 264.7 cells.
[5] abbreviates: cell-permeability relative to reference CPP MTD85 (C type), aMTD-fused CRA recombinant protein, 10 μM FITC-labeled, 1 hour, 37° C., RAW 264.7 cells.
Setting [6] is: cell-permeability relative to reference CPP MTM12 (B type), aMTD-fused CRA recombinant protein, 10 μM FITC-labeled, 1 hour, 37° C., RAW 264.7 cells.

As for “868 (VLVAAILPAAIP; Amino acid Sequence of aMTD868) [compound 868]”, the “Relative Ratio (Fold) A” value under setting [1] stood at 14.9 Fold. Also, under setting [2], the “Relative Ratio (Fold) B” value is 10.0 Fold. For the same substance, the “Relative Ratio (Fold) C” value under setting [3] stood at 5.0 Fold.
For “870 (VLVAAVLPIAAP; Amino acid Sequence of aMTD870) [compound 870]”, in that order: 16.6 Fold, 11.1 Fold and 5.6 Fold.
With “872 (VLAAAVLPLVVP; Amino acid Sequence of aMTD872) [compound 872]”, the “Relative Ratio (Fold) A” value under setting [4] came to 7.3 Fold. In addition, under setting [5], the “Relative Ratio (Fold) C” value came out at 2.5 Fold. Moreover, the “Relative Ratio (Fold) B” value under setting [6] is on record as 4.9 Fold.
For “875 (AIAIVVPAVAVP; Amino acid Sequence of aMTD875) [compound 875]”, the “Relative Ratio (Fold) A” value under setting [1] is listed as 13.8 Fold. Moreover, the “Relative Ratio (Fold) B” value under setting [2] came out at 9.2 Fold. Moreover, the “Relative Ratio (Fold) C” value under setting [3] is reported as 4.7 Fold.
For the substance “878 (IVALVAPAAVVP; Amino acid Sequence of aMTD878) [compound 878]”, the “Relative Ratio (Fold) A” value under setting [1] stood at 10.3 Fold. For the same substance, the “Relative Ratio (Fold) B” value under setting [2] came out at 6.9 Fold. Further, the “Relative Ratio (Fold) C” value under setting [3] is 3.5 Fold.
For “881 (AALIVVPAVAVP; Amino acid Sequence of aMTD881) [compound 881]”, in that order: 12.7 Fold, 8.5 Fold and 4.3 Fold.
The matching figures for “882 (AIALVVPAVAVP; Amino acid Sequence of aMTD882) [compound 882]”: 35.0 Fold, 23.4 Fold and 11.8 Fold.
In the case of “883 (LAIVPAAIAALP; Amino acid Sequence of aMTD883) [compound 883]”, the “Relative Ratio (Fold) A” value under setting [4] amounted to 3.0 Fold. Moreover, the “Relative Ratio (Fold) C” value under setting [5] worked out at 1.0 Fold. Moreover, under setting [6], the “Relative Ratio (Fold) B” value worked out at 2.0 Fold.
On to “885 (LVAIAPAVAVLP; Amino acid Sequence of aMTD885) [compound 885]”, for which the “Relative Ratio (Fold) A” value under setting [1] amounted to 28.3 Fold. In addition, under setting [2], the “Relative Ratio (Fold) B” value was 19.0 Fold. Moreover, the “Relative Ratio (Fold) C” value under setting [3] was determined as 9.6 Fold.
In the case of “887 (VLAVAPAVAVLP; Amino acid Sequence of aMTD887) [compound 887]”, under setting [1], the “Relative Ratio (Fold) A” value was 7.7 Fold. The “Relative Ratio (Fold) B” value under setting [2] is on record as 5.1 Fold. Also, under setting [3], the “Relative Ratio (Fold) C” value came to 2.6 Fold.
Regarding “888 (ILAVVAIPAAAP; Amino acid Sequence of aMTD888) [compound 888]”, the “Relative Ratio (Fold) A” value under setting [1] is recorded as 71.0 Fold. The “Relative Ratio (Fold) B” value under setting [2] stood at 47.5 Fold. The “Relative Ratio (Fold) C” value under setting [3] came to 24.0 Fold.
For “889 (ILVAAAPIAALP; Amino acid Sequence of aMTD889) [compound 889]”, in that order: 30.3 Fold, 20.3 Fold and 10.3 Fold.
The matching figures for “891 (ILAVAAIPAALP; Amino acid Sequence of aMTD891) [compound 891]”: 44.7 Fold, 29.9 Fold and 15.1 Fold.
Take “893 (VIAIPAILAAAP; Amino acid Sequence of aMTD893) [compound 893]”: the “Relative Ratio (Fold) A” value under setting [4] worked out at 7.0 Fold. Besides, the “Relative Ratio (Fold) C” value under setting [5] was 2.4 Fold. Also, the “Relative Ratio (Fold) B” value under setting [6] came out at 4.7 Fold.
“895 (AIIIVVPAIAAP; Amino acid Sequence of aMTD895) [compound 895]”: the “Relative Ratio (Fold) A” value under setting [1] is 60.8 Fold. The “Relative Ratio (Fold) B” value under setting [2] was 40.7 Fold. Also, the “Relative Ratio (Fold) C” value under setting [3] is reported as 20.6 Fold.
The matching figures for “896 (AILIVVAPIAAP; Amino acid Sequence of aMTD896) [compound 896]”: 57.5 Fold, 38.5 Fold and 19.4 Fold.
With “897 (AVIVPVAIIAAP; Amino acid Sequence of aMTD897) [compound 897]”, the “Relative Ratio (Fold) A” value by setting is: under setting [1], 11.2 Fold; under setting [4], 11.2 Fold. The “Relative Ratio (Fold) B” value is, setting by setting: under setting [2], 7.5 Fold; under setting [6], 7.5 Fold. For the same substance, the “Relative Ratio (Fold) C” value by setting is: under setting [3], 3.8 Fold; under setting [5], 3.8 Fold.
With “899 (AVVIALPAVVAP; Amino acid Sequence of aMTD899) [compound 899]”, the “Relative Ratio (Fold) A” value under setting [1] is reported as 164.2 Fold and the “Relative Ratio (Fold) A” value (relative cell-permeability of aMTD vs reference A (not defined)) stood at 164.2 Fold. Also, the “Relative Ratio (Fold) B” value is, setting by setting: under setting [2], 109.9 Fold; (relative cell-permeability of aMTD vs reference CPP B: MTM12) 109.9 Fold. The “Relative Ratio (Fold) C” value is, setting by setting: under setting [3], 55.5 Fold; (relative cell-permeability of aMTD vs reference CPP C: MTD85) 55.5 Fold.
